Source: ChEMBL document CHEMBL5223141, “New cycloalkyl[b]thiophenylnicotinamide-based α-glucosidase inhibitors as promising anti-diabetic agents: Synthesis, in silico study, in vitro and in vivo evaluations” (Bioorg Med Chem Lett, 2023)
Calls of active or inactive are those of the source. The rule behind the calls is not given here.

Legend:
HepG2 = assay: Cytotoxicity against human HepG2 cells at 100 uM by MTT assay; assay type: toxicity, cell-based; settings: hepg2, 100 µM
L02 = assay: Cytotoxicity against human L02 cells at 100 uM by MTT assay; assay type: toxicity, cell-based; settings: l02, 100 µM
[1] = target: Maltase-glucoamylase (Homo sapiens) (UniProt O43451); assay: Inhibition of alpha-glucosidase (unknown origin) at 100 uM relative to control
Chain of Maltase-glucoamylase (Homo sapiens) (O43451 whole entry, looked up): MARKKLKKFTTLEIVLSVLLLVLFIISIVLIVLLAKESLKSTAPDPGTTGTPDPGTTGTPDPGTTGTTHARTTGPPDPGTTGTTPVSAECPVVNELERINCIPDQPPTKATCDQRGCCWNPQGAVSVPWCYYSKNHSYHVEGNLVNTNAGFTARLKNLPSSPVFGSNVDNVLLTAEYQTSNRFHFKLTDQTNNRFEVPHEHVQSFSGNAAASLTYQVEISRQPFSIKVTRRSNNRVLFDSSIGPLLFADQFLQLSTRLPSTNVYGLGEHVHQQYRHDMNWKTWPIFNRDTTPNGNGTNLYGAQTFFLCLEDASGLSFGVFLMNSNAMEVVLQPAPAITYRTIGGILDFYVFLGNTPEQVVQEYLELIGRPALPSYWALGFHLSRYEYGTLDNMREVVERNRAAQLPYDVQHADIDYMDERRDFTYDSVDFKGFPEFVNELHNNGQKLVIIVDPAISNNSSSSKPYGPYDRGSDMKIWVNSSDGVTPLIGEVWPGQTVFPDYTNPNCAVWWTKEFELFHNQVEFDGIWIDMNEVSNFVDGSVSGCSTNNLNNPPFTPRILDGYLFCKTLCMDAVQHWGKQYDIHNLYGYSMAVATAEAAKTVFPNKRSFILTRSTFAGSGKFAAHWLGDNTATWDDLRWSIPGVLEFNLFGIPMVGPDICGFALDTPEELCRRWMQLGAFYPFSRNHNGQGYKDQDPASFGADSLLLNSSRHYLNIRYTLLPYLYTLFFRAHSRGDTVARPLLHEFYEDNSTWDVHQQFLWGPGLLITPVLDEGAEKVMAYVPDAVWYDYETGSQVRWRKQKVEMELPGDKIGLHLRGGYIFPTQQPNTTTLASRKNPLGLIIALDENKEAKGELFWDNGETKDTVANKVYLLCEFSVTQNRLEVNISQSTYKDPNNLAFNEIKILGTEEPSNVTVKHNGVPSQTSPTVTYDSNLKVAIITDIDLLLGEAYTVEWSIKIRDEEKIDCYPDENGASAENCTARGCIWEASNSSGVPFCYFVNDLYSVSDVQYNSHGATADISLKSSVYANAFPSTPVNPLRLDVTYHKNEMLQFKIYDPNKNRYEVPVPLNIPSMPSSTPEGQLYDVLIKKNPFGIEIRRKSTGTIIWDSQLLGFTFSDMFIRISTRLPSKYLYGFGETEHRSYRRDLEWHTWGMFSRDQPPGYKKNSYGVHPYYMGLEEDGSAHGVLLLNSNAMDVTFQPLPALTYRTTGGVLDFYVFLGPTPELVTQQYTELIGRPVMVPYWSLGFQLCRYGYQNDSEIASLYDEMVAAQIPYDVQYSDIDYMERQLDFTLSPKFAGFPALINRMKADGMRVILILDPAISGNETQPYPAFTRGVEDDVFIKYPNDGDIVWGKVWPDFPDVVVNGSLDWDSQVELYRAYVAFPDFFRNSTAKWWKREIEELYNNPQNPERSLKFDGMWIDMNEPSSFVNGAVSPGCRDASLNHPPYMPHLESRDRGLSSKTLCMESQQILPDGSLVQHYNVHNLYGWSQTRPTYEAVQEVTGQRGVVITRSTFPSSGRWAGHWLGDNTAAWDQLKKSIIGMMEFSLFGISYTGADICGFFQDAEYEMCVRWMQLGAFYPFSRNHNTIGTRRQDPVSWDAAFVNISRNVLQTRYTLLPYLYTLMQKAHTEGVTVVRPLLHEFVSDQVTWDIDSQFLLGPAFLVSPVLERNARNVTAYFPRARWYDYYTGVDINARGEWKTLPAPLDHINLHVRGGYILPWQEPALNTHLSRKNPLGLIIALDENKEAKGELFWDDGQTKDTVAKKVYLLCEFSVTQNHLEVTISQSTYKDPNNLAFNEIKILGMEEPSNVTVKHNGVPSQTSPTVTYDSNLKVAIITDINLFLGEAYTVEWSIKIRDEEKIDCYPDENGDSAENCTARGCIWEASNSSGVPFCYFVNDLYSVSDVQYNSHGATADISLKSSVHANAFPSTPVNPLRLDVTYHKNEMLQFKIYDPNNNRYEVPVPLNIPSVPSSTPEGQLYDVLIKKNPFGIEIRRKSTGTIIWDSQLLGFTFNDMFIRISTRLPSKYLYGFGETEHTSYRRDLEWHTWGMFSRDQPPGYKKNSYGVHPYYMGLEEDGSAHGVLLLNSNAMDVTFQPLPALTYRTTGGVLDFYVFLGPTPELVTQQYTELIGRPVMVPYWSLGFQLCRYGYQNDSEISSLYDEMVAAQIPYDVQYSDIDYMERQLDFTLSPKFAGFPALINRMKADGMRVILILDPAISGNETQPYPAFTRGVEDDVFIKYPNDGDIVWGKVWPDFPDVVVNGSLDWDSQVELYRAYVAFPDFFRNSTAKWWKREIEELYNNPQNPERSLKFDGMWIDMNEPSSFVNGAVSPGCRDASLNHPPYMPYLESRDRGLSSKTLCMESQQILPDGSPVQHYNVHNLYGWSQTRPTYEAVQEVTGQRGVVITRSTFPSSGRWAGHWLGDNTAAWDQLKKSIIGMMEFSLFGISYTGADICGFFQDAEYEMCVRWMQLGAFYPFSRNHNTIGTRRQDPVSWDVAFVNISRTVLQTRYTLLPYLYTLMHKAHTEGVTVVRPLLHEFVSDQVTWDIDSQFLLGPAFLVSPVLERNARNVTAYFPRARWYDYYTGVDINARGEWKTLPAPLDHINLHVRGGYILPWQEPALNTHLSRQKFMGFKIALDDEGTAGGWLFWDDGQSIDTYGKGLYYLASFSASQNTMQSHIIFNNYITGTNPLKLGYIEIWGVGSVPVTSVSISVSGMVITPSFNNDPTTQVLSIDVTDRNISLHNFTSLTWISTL

Homo sapiens = organism: Homo sapiens; assay: Selectivity ratio of IC50 for alpha-amylase (unknown origin) to IC50 for alpha-glucosidase (unknown origin)
Alpha amylase = target: T1, Alpha amylase (Homo sapiens, UniProt P0DUB6); assay: Inhibition of alpha-amylase (unknown origin)
T1 sequence (P0DUB6 whole entry): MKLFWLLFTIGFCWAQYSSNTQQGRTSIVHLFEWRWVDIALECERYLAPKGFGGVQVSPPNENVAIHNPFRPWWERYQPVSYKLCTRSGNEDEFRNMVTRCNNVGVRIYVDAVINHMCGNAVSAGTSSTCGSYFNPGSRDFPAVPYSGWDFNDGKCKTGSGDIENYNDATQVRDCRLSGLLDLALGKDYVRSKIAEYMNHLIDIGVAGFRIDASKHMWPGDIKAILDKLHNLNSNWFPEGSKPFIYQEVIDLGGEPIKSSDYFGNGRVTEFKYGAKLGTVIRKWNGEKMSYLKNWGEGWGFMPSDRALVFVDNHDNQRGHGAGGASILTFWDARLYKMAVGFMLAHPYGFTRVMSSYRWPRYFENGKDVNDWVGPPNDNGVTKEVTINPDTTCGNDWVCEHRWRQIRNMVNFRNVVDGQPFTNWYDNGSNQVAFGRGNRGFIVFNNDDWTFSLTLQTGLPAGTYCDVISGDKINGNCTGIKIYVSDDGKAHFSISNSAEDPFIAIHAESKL

Rattus norvegicus [2] = assay: Anti-hyperglycemic activity in sucrose loaded Sprague-Dawley rat assessed as decrease in blood glucose level at 5 mg/kg, po measured after 45 mins by oral sucrose tolerance test; assay type: functional; settings: 0.75 h
Rattus norvegicus [3] = assay: Anti-hyperglycemic activity in sucrose loaded Sprague-Dawley rat assessed as blood glucose level at 5 mg/kg, po measured at 30 mins by oral sucrose tolerance test (reference value: 10.80+/-0.92 mmol/L); assay type: functional; settings: 0.5 h
[4] = target: Maltase-glucoamylase (Homo sapiens) (UniProt O43451); assay: Mixed type inhibition of alpha-glucosidase (unknown origin) assessed as increase in Km by measuring increase in intercept using pNPG as substrate at upto 25 uM by Lineweaver-Burk plot analysis
[5] = target: Maltase-glucoamylase (Homo sapiens) (UniProt O43451); assay: Inhibition of alpha-glucosidase (unknown origin) assessed as increase in intrinsic fluorescence emission; settings: dose 0-100 µM
[6] = target: Maltase-glucoamylase (Homo sapiens) (UniProt O43451); assay: Mixed type inhibition of alpha-glucosidase (unknown origin) assessed as decrease in Vmax by measuring increase in slope using pNPG as substrate at upto 25 uM by Lineweaver-Burk plot analysis

O=C(Nc1sc2c(c1C(=O)NCc1cccnc1)CCC2)c1cccnc1
Activity (HepG2): Non-Toxic | Activity (L02): Non-Toxic | inhibition [1]: 12.5%

COc1ccc(CNC(=O)c2c(NC(=O)c3cccnc3)sc3c2CCCC3)cc1
Ratio IC50 (Homo sapiens): 2.7 | Activity (HepG2): Non-Toxic | IC50 (Alpha amylase): 80.4 µM | Activity (L02): Non-Toxic | inhibition [1]: 78.1%

O=C(Nc1sc2c(c1C(=O)NCc1ccncc1)CCCCC2)c1cccnc1
inhibition [1]: 9.2%

COc1cc2c(cc1OC)CN(C(=O)c1c(NC(=O)c3cccnc3)sc3c1CCC3)CC2
Activity (HepG2): Non-Toxic | Activity (L02): Non-Toxic | inhibition [1]: 23.2%

O=C(Nc1sc2c(c1C(=O)NCc1ccccn1)CCCCC2)c1cccnc1
inhibition [1]: 26.8%

COc1cc(CNC(=O)c2c(NC(=O)c3cccnc3)sc3c2CCCCC3)ccc1O
inhibition [1]: 81.7%

COc1cc2c(cc1OC)CN(C(=O)c1c(NC(=O)c3cccnc3)sc3c1CCCC3)CC2
inhibition [1]: 42.2%

COc1ccc(CNC(=O)c2c(NC(=O)c3cccnc3)sc3c2CCCCC3)cc1
inhibition [1]: 44.1%

O=C(Nc1sc2c(c1C(=O)NCc1ccccn1)CCCC2)c1cccnc1
Ratio IC50 (Homo sapiens): 1.5 | Activity (HepG2): Non-Toxic | IC50 (Alpha amylase): 94.8 µM | Activity (L02): Non-Toxic | inhibition [1]: 57.2%

COc1cc(CNC(=O)c2c(NC(=O)c3cccnc3)sc3c2CCC3)ccc1O
Activity (HepG2): Non-Toxic | Activity (L02): Non-Toxic | inhibition [1]: 50.6%

C[C@H]1O[C@H](O[C@H]2[C@H](O)[C@@H](O)[C@@H](O[C@H]3[C@H](O)[C@@H](O)C(O)O[C@@H]3CO)O[C@@H]2CO)[C@H](O)[C@@H](O)[C@@H]1N[C@H]1C=C(CO)[C@@H](O)[C@H](O)[C@H]1O (stereo partly drawn) [ACARBOSE]
Activity (Rattus norvegicus [2]): 9.89 mmol/L | Activity (Rattus norvegicus [3]): 9.57 mmol/L | Activity (HepG2): Non-Toxic | Activity (L02): Non-Toxic

O=C(Nc1sc2c(c1C(=O)NCc1ccccc1)CCC2)c1cccnc1
Activity (HepG2): Non-Toxic | Activity (L02): Non-Toxic | inhibition [1]: 56.6%

COc1cc(CNC(=O)c2c(NC(=O)c3cccnc3)sc3c2CCCC3)ccc1O
Activity [4]: Active | Activity (Rattus norvegicus [2]): 9.9 mmol/L | Ratio IC50 (Homo sapiens): 7.4 | Activity (Rattus norvegicus [3]): 9.73 mmol/L | Activity (HepG2): Non-Toxic | IC50 (Alpha amylase): 72.9 µM | Activity [5]: Dose-Dependent Effect | Activity (L02): Non-Toxic | inhibition [1]: 93.6% | Activity [6]: Active

COc1cc2c(cc1OC)CN(C(=O)c1c(NC(=O)c3cccnc3)sc3c1CCCCC3)CC2
inhibition [1]: 29.1%

COc1ccc(CNC(=O)c2c(NC(=O)c3cccnc3)sc3c2CCC3)cc1
Activity (HepG2): Non-Toxic | Activity (L02): Non-Toxic | inhibition [1]: 55.4%

O=C(Nc1sc2c(c1C(=O)NCc1ccncc1)CCC2)c1cccnc1
Activity (HepG2): Non-Toxic | Activity (L02): Non-Toxic | inhibition [1]: 1.1%

O=C(Nc1sc2c(c1C(=O)NCc1cccnc1)CCCCC2)c1cccnc1
inhibition [1]: 26.5%

O=C(Nc1sc2c(c1C(=O)NCc1ccncc1)CCCC2)c1cccnc1
inhibition [1]: 44.1%

O=C(Nc1sc2c(c1C(=O)NCc1ccccc1)CCCCC2)c1cccnc1
inhibition [1]: 59%

COC(=O)c1ccc(CNC(=O)c2c(NC(=O)c3cccnc3)sc3c2CCCCC3)cc1
inhibition [1]: 18.1%

O=C(Nc1sc2c(c1C(=O)NCc1ccccn1)CCC2)c1cccnc1
Activity (HepG2): Non-Toxic | Activity (L02): Non-Toxic | inhibition [1]: 30.5%

O=C(Nc1sc2c(c1C(=O)NCc1cccnc1)CCCC2)c1cccnc1
Ratio IC50 (Homo sapiens): 0.9 | Activity (HepG2): Non-Toxic | IC50 (Alpha amylase): 48.1 µM | Activity (L02): Non-Toxic | inhibition [1]: 62.7%

COC(=O)c1ccc(CNC(=O)c2c(NC(=O)c3cccnc3)sc3c2CCC3)cc1
Activity (HepG2): Non-Toxic | Activity (L02): Non-Toxic | inhibition [1]: 21.9%

O=C(Nc1sc2c(c1C(=O)NCc1ccccc1)CCCC2)c1cccnc1
Ratio IC50 (Homo sapiens): 1.7 | Activity (HepG2): Non-Toxic | IC50 (Alpha amylase): 76.1 µM | Activity (L02): Non-Toxic | inhibition [1]: 64.4%

COC(=O)c1ccc(CNC(=O)c2c(NC(=O)c3cccnc3)sc3c2CCCC3)cc1
Ratio IC50 (Homo sapiens): 0.8 | Activity (HepG2): Non-Toxic | IC50 (Alpha amylase): 66.9 µM | Activity (L02): Non-Toxic | inhibition [1]: 58.2%
